Results from patent US20220389500A1, “PURIFYING AND POLYMERIZING 3'-BLOCKED NUCLEOTIDES” (ILLUMINA, INC., priority 2021, published 2022).

Experiments:
[1] = Observation of precipitate and color change of dye-coupled nucleotide solutions with polishing polymerase, template, magnesium ions and buffer; format: physicochemical; conditions: HPBCD added to dye-coupled nucleotides, magnesium ions (magnesium acetate) and buffer
Source text: A precipitate was formed and a color change of solution was observed when nucleotides (3′-blocked and 3′-OH), which were coupled to different fluorescent dyes, were mixed with polishing polymerase, a template, magnesium ions (from magnesium acetate), and a buffer. The change in color was interpreted as the solution having a reduced concentration of fluorescent dyes, and the precipitate was interpreted as being an aggregation of the nucleotides coupled to the fluorescent dyes. […] From this it was inferred that modified α-cyclodextrins (such as (2-hydroxypropyl)-α-cyclodextrin), other modified β-cyclodextrins (such as […], HEBCD), or modified γ-cyclodextrins (such as (2-hydroxypropyl)-γ-cyclodextrin) may promote solubility of the nucleotides and/or of the fluorescent dyes. A series of solutions were prepared in which the concentration of magnesium ions was varied between 0 and 6.3 mM, the concentration of HPBCD was varied between 0% and 10% (w/v), and the concentration of nucleotides including fluorescent dyes was varied between 0.5 and 1.5 mM. […] The plots described below with reference to FIGS. 12-15 were obtained by using the measured normalized intensities, together with the corresponding concentrations of different solution components, in a model that interpolated the behavior of the solution system for additional concentrations. […]

[2] = Concentrations of byproducts diphosphate and tetraphosphate in nucleotide solutions vs HPBCD, magnesium ions and nucleotides (FIG. 15); format: physicochemical; conditions: solutions with buffer, polymerase and oligonucleotide template
Source text: A precipitate was formed and a color change of solution was observed when nucleotides (3′-blocked and 3′-OH), which were coupled to different fluorescent dyes, were mixed with polishing polymerase, a template, magnesium ions (from magnesium acetate), and a buffer. The change in color was interpreted as the solution having a reduced concentration of fluorescent dyes, and the precipitate was interpreted as being an aggregation of the nucleotides coupled to the fluorescent dyes. […] The plots described below with reference to FIGS. 12-15 were obtained by using the measured normalized intensities, together with the corresponding concentrations of different solution components, in a model that interpolated the behavior of the solution system for additional concentrations. […]
FIG. 15 includes plots of the concentrations of different byproducts as a function of concentrations of the modified β-cyclodextrin HPBCD, of magnesium ions, and of the fluorescently labeled nucleotides FFA-1, FFA-3, and FFC-1. More specifically, the respective concentrations of diphosphate and tetraphosphate in the solutions were measured and used in the above-noted models. […]

CC(O)COC[C@H]1O[C@@H]2O[C@H]3[C@H](O)[C@@H](O)[C@@H](O[C@H]4[C@H](O)[C@@H](O)[C@@H](O[C@H]5[C@H](O)[C@@H](O)[C@@H](O[C@H]6[C@H](O)[C@@H](O)[C@@H](O[C@H]7[C@H](O)[C@@H](O)[C@@H](O[C@H]8[C@H](O)[C@@H](O)[C@@H](O[C@H]1[C@H](O)[C@H]2O)O[C@@H]8COCC(C)O)O[C@@H]7COCC(C)O)O[C@@H]6COCC(C)O)O[C@@H]5COCC(C)O)O[C@@H]4COCC(C)O)O[C@@H]3COCC(C)O (stereo partly drawn) [HPBCD, (2-hydroxypropyl)-β-cyclodextrin]
precipitate formation and color change of solution [1]: did not form a precipitate or change color
effect on formation of byproducts (diphosphate, tetraphosphate) [2]: suppressed the formation of different byproducts
